Tested on: GNS166 cells
Assay: Microarray whole-transcriptome gene expression analysis
Format: cell-based, human
Description: Whole-transcriptome analysis was performed from 300 ng of RNA using HuGene-2_0-st-v1 expression array (Affymetrix), which covers 48,226 transcripts. Raw data were first checked for quality purposes through the Affymetrix® Expression Console™ Software v1.4.1 and TAC software v4.0. Then, data were normalized using the Robust Multi-array Average (RMA) and analyzed by Limma tool. Probesets with FDR-corrected p-values smaller than 0.05 were selected. Functional enrichment on Gene Ontology (GO) biological processes was performed on a smaller subset of the differentially expressed genes (corrected p-value < 0.001) by means of Broad Institute GSEA. […] The data that support this study have been deposited in NCBI´s Gene Expression Omnibus and are accessible through GEO series accession number GSE143887.

[1] = sheet DMSO-SAHA_DOWN, microarray

O=C(CCCCCCC(=O)Nc1ccccc1)NO [SAHA, Suberoylanilide hydroxamic acid]
logFC ZNF85 (DMSO vs SAHA, downregulated, transcript TC1900007502.hg.1): -1.299 | logFC ZNF254 (DMSO vs SAHA, downregulated, transcript TC1900007622.hg.1): -1.436 | logFC AXL (DMSO vs SAHA, downregulated, transcript TC1900008143.hg.1): -2.335 | logFC KEAP1 (DMSO vs SAHA, downregulated, transcript TC1900009630.hg.1): -1.437 | logFC EMP3 (DMSO vs SAHA, downregulated, transcript TC1900011774.hg.1): -1.798 | logFC UBE2C (DMSO vs SAHA, downregulated, transcript TC2000007503.hg.1): -1.95 | logFC JPH2 (DMSO vs SAHA, downregulated, transcript TC2000009178.hg.1): -1.382 | logFC ZFP64 (DMSO vs SAHA, downregulated, transcript TC2000009469.hg.1): -1.251 | logFC AURKA (DMSO vs SAHA, downregulated, transcript TC2000009550.hg.1): -1.686 | logFC UCKL1 (DMSO vs SAHA, downregulated, transcript TC2000009848.hg.1): -1.222 | logFC MX1 (DMSO vs SAHA, downregulated, transcript TC2100007208.hg.1): -1.686 | logFC COL6A1 (DMSO vs SAHA, downregulated, transcript TC2100007446.hg.1): -1.16 | logFC SUMO3 (DMSO vs SAHA, downregulated, transcript TC2100008385.hg.1): -1.431 | logFC TRIOBP (DMSO vs SAHA, downregulated, transcript TC2200007313.hg.1): -1.456 | logFC MICALL1 (DMSO vs SAHA, downregulated, transcript TC2200007324.hg.1): -1.322 | logFC ZC3H7B (DMSO vs SAHA, downregulated, transcript TC2200007467.hg.1): -1.779 | logFC GTSE1 (DMSO vs SAHA, downregulated, transcript TC2200007662.hg.1): -1.615 | logFC TXNRD2 (DMSO vs SAHA, downregulated, transcript TC2200008001.hg.1): -1.47 | logFC PATZ1 (DMSO vs SAHA, downregulated, transcript TC2200008477.hg.1): -1.5057 | logFC NDUFA6 (DMSO vs SAHA, downregulated, transcript TC2200008859.hg.1): -1.148 | logFC APOBEC3B (DMSO vs SAHA, downregulated, transcript TC2200009270.hg.1): -1.723 | logFC APOBEC3C (DMSO vs SAHA, downregulated, transcript TC2200009271.hg.1): -1.685 | logFC RBX1 (DMSO vs SAHA, downregulated, transcript TC2200009278.hg.1): -1.233 | logFC TRMU (DMSO vs SAHA, downregulated, transcript TC2200009288.hg.1): -1.487 | logFC KIF15 (DMSO vs SAHA, downregulated, transcript TSUnmapped00000255.hg.1): -1.857 | logFC KIF15 (DMSO vs SAHA, downregulated, transcript TSUnmapped00000627.hg.1): -1.713 | logFC AES (transcript TC1900009272.hg.1) [1]: -1.167 | logFC APOBEC3G (transcript TC2200009274.hg.1) [1]: -1.162 | logFC ATF7 (transcript TC1200010809.hg.1) [1]: -0.8995 | logFC ATG4D (transcript TC1900006989.hg.1) [1]: -0.9381 | logFC ATP5G2 (transcript TC1200012798.hg.1) [1]: -0.8974 | logFC ATXN10 (transcript TC2200007626.hg.1) [1]: -0.8219 | logFC AVEN (transcript TC1500008971.hg.1) [1]: -1.4 | logFC B4GALT2 (transcript TC0100008082.hg.1) [1]: -1.044 | logFC BORCS7-ASMT (transcript TC1000012497.hg.1) [1]: -1.471 | logFC C1QBP (transcript TC1700012341.hg.1) [1]: -0.864 | logFC CARD8 (transcript TC1900011061.hg.1) [1]: -1.473 | logFC CD109 (transcript TC0600008539.hg.1) [1]: -1.058 | logFC CDC25B (transcript TC2000006559.hg.1) [1]: -1.166 | logFC COMT (transcript TC2200006623.hg.1) [1]: -1.056 | logFC CXCL14 (transcript TC0500012107.hg.1) [1]: -1.597 | logFC DENND2A (transcript TC0700012813.hg.1) [1]: -1.223 | logFC EOGT (transcript TC0300011448.hg.1) [1]: -1.387 | logFC FAM65B (transcript TC0600014247.hg.1) [1]: -1.186 | logFC FAM83D (transcript TC2000007341.hg.1) [1]: -1.0787 | logFC FBXO32 (transcript TC0800011683.hg.1) [1]: -1.239 | logFC FHL2 (transcript TC0200013750.hg.1) [1]: -1.323 | logFC GYG1 (transcript TC0300009126.hg.1) [1]: -0.8272 | logFC H2AFY2 (transcript TC1000007913.hg.1) [1]: -1.438 | logFC HGSNAT (transcript TC0800007460.hg.1) [1]: -1.179 | logFC HIST1H1E (transcript TC0600007273.hg.1) [1]: -0.9296 | logFC HIST1H2AK (transcript TC0600011228.hg.1) [1]: -1.094 | logFC HIST1H3G (transcript TC0600011142.hg.1) [1]: -1.091 | logFC HIST2H2AB (transcript TC0100015711.hg.1) [1]: -1.264 | logFC HMGB2 (transcript TC0400012432.hg.1) [1]: -1.248 | logFC HNF4G (transcript TC0800008002.hg.1) [1]: -1.665 | logFC HOXB6 (transcript TC1700012433.hg.1) [1]: -0.9482 | logFC HOXB7 (transcript TC1700012434.hg.1) [1]: -1.178 | logFC HSF2BP (transcript TC2100008306.hg.1) [1]: -1.094 | logFC KAT7 (transcript TC1700008216.hg.1) [1]: -0.9549 | logFC KIF15 (transcript TSUnmapped00000127.hg.1) [1]: -1.52 | logFC KIF15 (transcript TSUnmapped00000190.hg.1) [1]: -1.209 | logFC KIF15 (transcript TSUnmapped00000242.hg.1) [1]: -1.3548 | logFC KPNA2 (transcript TC1700008719.hg.1) [1]: -0.848 | logFC KRTCAP2 (transcript TC0100018498.hg.1) [1]: -0.9489 | logFC LOXL1 (transcript TC1500007829.hg.1) [1]: -1.906 | logFC LRRC41 (transcript TC0100014050.hg.1) [1]: -1.4599 | logFC MCPH1 (transcript TC0800006557.hg.1) [1]: -1.179 | logFC MRPL15 (transcript TC0800007653.hg.1) [1]: -1.399 | logFC MSRA (transcript TC0800006697.hg.1) [1]: -0.9684 | logFC MYBL2 (transcript TC2000007438.hg.1) [1]: -1.297 | logFC NCAPG2 (transcript TC0700013290.hg.1) [1]: -1.083 | logFC NFKB1 (transcript TC0400008271.hg.1) [1]: -1.316 | logFC NQO1 (transcript TC1600010732.hg.1) [1]: -1.465 | logFC PKNOX1 (transcript TC2100007278.hg.1) [1]: -1.264 | logFC PRRC2A (transcript TC0600007599.hg.1) [1]: -0.9194 | logFC PTPRE (transcript TC1000009296.hg.1) [1]: -0.9151 | logFC PTRHD1 (transcript TC0200011990.hg.1) [1]: -0.8388 | logFC RHNO1 (transcript TC1200012573.hg.1) [1]: -1.078 | logFC RUNX2 (transcript TC0600008146.hg.1) [1]: -1.088 | logFC SAMD9L (transcript TC0700011797.hg.1) [1]: -1.884 | logFC SCG2 (transcript TC0200015865.hg.1) [1]: -0.9206 | logFC SLC47A2 (transcript TC1700010035.hg.1) [1]: -1.04 | logFC SMARCB1 (transcript TC2200006862.hg.1) [1]: -1.487 | logFC TAPBP (transcript TC0600011536.hg.1) [1]: -0.9356 | logFC TAS2R13 (transcript TC1200009921.hg.1) [1]: -1.256 | logFC TFDP1 (transcript TC1300008144.hg.1) [1]: -0.8938 | logFC TK2 (transcript TC1600011551.hg.1) [1]: -1.009 | logFC TNFRSF12A (transcript TC1600006652.hg.1) [1]: -0.9964
